How the values were obtained:
[1] = target: human LSD1 (Homo sapiens (Human), UniProt O60341); assay: Evaluation of enzyme activity: LSD1 fluorescence coupling enzyme assay (HRP/Amplex Red); assay type: biochemical; conditions: human LSD1, histone H3(1-21)K4me2 peptide 10 μM, 30 min pre-incubation
Experimental: The purpose of this test is to test the in vitro inhibitory activities of the compounds against LSD1. The enzyme used in this experiment was human LSD1, and the standard substrate was histone H3(1-21)K4me2 peptide (10 μM). HCI-2509 (SP2509) was used as reference compound, and the fluorescence coupling enzyme assay was employed. The production of FAD-dependent H2O2 as a result of demethylase activity of LSD1 was measured by coupling with HRP and Amplex Red. Compounds as well as control compound HCl-2509 were tested in 10-dose IC50 mode with a 3-fold serial dilution in duplicate starting at 10 μm. All compounds were pre-incubated 30 mins with enzyme before added substrate to start reaction. Fluorescence measurement: Ex/Em=535/590 by EnVision.
The test compound's inhibitory activities against LSD11 was classified as: + for IC50≤50 nM; ++ for IC50>50 nM and ≤100 nM; +++ for IC50>100 nM and ≤500 nM, and the results are shown in Table 1.

[2] = system: H1417 cells; assay: Cell proliferation inhibitory activity on H1417 cells (CellTiter-Glo, 10 days); assay type: cell-based, human; conditions: for IC50: 10 days incubation; for Emax: NCI-H1417, H1417 cells, read-out: Maximum inhibition percentage (%)
Experimental: Experimental purposes: To test the proliferation inhibitory activities of the test compounds on H1417 cells.
Experimental materials: RPMI 1640 medium, fetal bovine serum, Promega CellTiter-Glo reagent. The H1417 cell line purchased from ATCC. Envision Multi-Label Analyzer (PerkinElmer).
Experimental method: H1417 cells were seeded in a black 384-well plate, 1000 cells per well in […] of cell suspension. The test compounds were diluted 3-fold with Epmotion to the 10th concentration i.e, the compounds were diluted from 10 mmol to […], and a double duplicate well experiment was set. 198 μL medium was added to the middle plate, according to the corresponding position, 2 μL gradient diluted compounds were added to the middle plate. The mixture was mixed evenly and transferred 20 μL per well to the cell plates. The cell plates were incubated in a carbon dioxide incubator for 10 days. 25 μL of Promega CellTiter-Glo reagent per well was added to the cell plate and the mixture was incubated for 10 minutes at room temperature to stabilize the luminescence signal. Readings were performed by PerkinElmer Envision multi-label analyzer.
Data analysis: The original data was converted to the inhibition rate by the equation (Max-Ratio)/(Max-Min)*100%, and the value of IC50 can be obtained by curve fitting with four parameters. (Model 205 in XLFIT5, iDBS)
The growth inhibitory activities of the test compounds on H1417 cells were classified as + for IC50≤100 nM; ++ for IC50>100 nM and ≤500 nM; +++ for IC50>500 nM and ≤1000 nM; the highest percentage inhibition of cell viability was classified as: […]; 90%>B≥70%; 70%>C≥50%.

[3] = Homo sapiens, NCI-H1417, 240 h, H1417 cells
[4] = Homo sapiens, highest percentage inhibition of cell viability

| SMILES | IC50 [1] | IC50 [2, 3] | IC50 ([2]; H1417 cells) | Emax [2, 4] | Maximum inhibition percentage (%) ([2]; H1417 cells, highest percentage inhibition of cell viability) |
| --- | --- | --- | --- | --- | --- |
| N#CC1(CN[C@H]2CC2c2ccccc2)CC1 (stereo partly drawn) [Example 1] | 100 to 500 nM | ≤ 100 nM |  | 90 to 100% |  |
| NCC1(CN[C@H]2CC2c2ccccc2)CC1 (stereo partly drawn) [Example 4] | ≤ 50 nM | ≤ 100 nM |  | 50 to 70% |  |
| CCNCC1(CN[C@H]2CC2c2ccccc2)CC1 (stereo partly drawn) [Example 6] | 100 to 500 nM | 500 to 1000 nM |  | 50 to 70% |  |
| N#CC1(CN[C@H]2CC2c2ccccc2)CCC1 (stereo partly drawn) [Example 8] | 50 to 100 nM | 100 to 500 nM |  | 50 to 70% |  |
| NCC1(CN[C@H]2CC2c2ccccc2)CCC1 (stereo partly drawn) [Example 9] | ≤ 50 nM | ≤ 100 nM |  | 70 to 90% |  |
| Clc1ccc(-c2nnc(C3(CN[C@H]4CC4c4ccccc4)CC3)o2)cc1 (stereo partly drawn) [Example 70] | ≤ 50 nM | 100 to 500 nM |  | 90 to 100% |  |
| CC(C)Oc1ccc(-c2nc(C3(CN[C@H]4CC4c4ccccc4)CCC3)no2)cc1 (stereo partly drawn) [Example 87] | ≤ 50 nM | 100 to 500 nM |  | 50 to 70% |  |
| FC(F)(F)Oc1ccc(-c2nc(C3(CN[C@H]4CC4c4ccccc4)CCC3)no2)cc1 (stereo partly drawn) [Example 88] | ≤ 50 nM | 100 to 500 nM |  | 50 to 70% |  |
| FC(F)Oc1ccc(-c2nc(C3(CN[C@H]4CC4c4ccccc4)CCC3)no2)cc1 (stereo partly drawn) [Example 89] | ≤ 50 nM | 100 to 500 nM |  | 50 to 70% |  |
| NC(=O)c1ccc(-c2nc(C3(CN[C@H]4CC4c4ccccc4)CCC3)no2)cc1 (stereo partly drawn) [Example 95] | ≤ 50 nM | ≤ 100 nM |  | 50 to 70% |  |
| N#Cc1ccc2c(c1)CN(CC1(CN[C@H]3CC3c3ccccc3)CC1)C2 (stereo partly drawn) [Example 100] | ≤ 50 nM | 100 to 500 nM |  | 50 to 70% |  |
| c1ccc(C2C[C@@H]2NCC2(c3noc(-c4ccc5scnc5c4)n3)CCC2)cc1 (stereo partly drawn) [Example 127] | ≤ 50 nM | 100 to 500 nM |  | 50 to 70% |  |
| COc1ccc(-c2nc(C3(CN[C@H]4CC4c4ccccc4)CCC3)no2)cn1 (stereo partly drawn) [Example 129] | ≤ 50 nM | 100 to 500 nM |  | 50 to 70% |  |
| FC(F)(F)c1ccc(-c2nc(C3(CN[C@H]4CC4c4ccccc4)CCC3)no2)cc1 (stereo partly drawn) [Example 132] | ≤ 50 nM | 100 to 500 nM |  | 50 to 70% |  |
| N#Cc1ccc(-c2nc(C3(CN[C@H]4CC4c4ccccc4)CCC3)no2)cc1 (stereo partly drawn) [Example 192] | ≤ 50 nM | 100 to 500 nM |  | 50 to 70% |  |
| N#Cc1ccc(-c2nc(C3(CN[C@H]4CC4c4ccccc4)CCC3)no2)c(F)c1 (stereo partly drawn) [Example 193] | ≤ 50 nM | 100 to 500 nM |  | 50 to 70% |  |
| NC1CCC(NCC2(CN[C@H]3CC3c3ccccc3)CC2)CC1 (stereo partly drawn) [Example 195] | ≤ 50 nM | 100 to 500 nM |  | 50 to 70% |  |
| N[C@H]1CC[C@@H](c2nc(C3(CN[C@@H]4C[C@H]4c4ccccc4)CCC3)no2)CC1 [Example 209] | ≤ 50 nM |  |  |  |  |
| c1ccc([C@H]2C[C@@H]2NCC2(CN3CCC3)CC2)cc1 [Example 211] | 50 to 100 nM |  |  |  |  |
| C[C@H]1CCCN1CC1(CN[C@H]2C[C@@H]2c2ccccc2)CC1 [Example 212] | 100 to 500 nM |  |  |  |  |
| C[C@@H]1CN(CC2(CN[C@H]3CC3c3ccccc3)CC2)[C@@H](C)CN1C (stereo partly drawn) [Example 221] | 100 to 500 nM |  |  |  |  |
| O=C(O)[C@@H]1CCN1CC1(CN[C@@H]2C[C@H]2c2ccccc2)CC1 [Example 228] | 100 to 500 nM |  |  |  |  |
| C/C(=N\NC(=O)c1cccc(S(=O)(=O)N2CCOCC2)c1)c1cc(Cl)ccc1O [HCI-2509, reference compound] | ≤ 50 nM |  |  |  |  |

The next lines start with results.

| IC50 [1] | IC50 [2, 3] | IC50 ([2]; H1417 cells) | SMILES | Emax [2, 4] | Maximum inhibition percentage (%) ([2]; H1417 cells, highest percentage inhibition of cell viability) |
| --- | --- | --- | --- | --- | --- |
| ≤ 50 nM | 500 to 1000 nM |  | Clc1ccc(-c2noc(C3(CN[C@H]4CC4c4ccccc4)CC3)n2)cc1 (stereo partly drawn) [Example 69] | 50 to 70% |  |
| ≤ 50 nM | 100 to 500 nM |  | CN(C)[C@H]1CC[C@@H](c2nc(C3(CN[C@@H]4C[C@H]4c4ccccc4)CC3)no2)CC1 [Example 116] | 70 to 90% |  |
| ≤ 50 nM | 100 to 500 nM |  | O=C(N[C@H]1CC[C@@H](c2nc(C3(CN[C@@H]4C[C@H]4c4ccccc4)CC3)no2)CC1)C1CC1 [Example 117] | 70 to 90% |  |
| ≤ 50 nM | 500 to 1000 nM |  | N[C@H]1CC[C@@H](c2nc(C3(CN[C@@H]4C[C@H]4c4ccccc4)CC3)no2)C1 [Example 147] | 90 to 100% |  |
| 50 to 100 nM |  | 500 to 1000 nM | O=C(O)[C@H]1C[C@H](c2nc(C3(CN[C@@H]4C[C@H]4c4ccccc4)CC3)no2)C1 [Example 149] |  | C (70%>C≥50%) |
| 100 to 500 nM | 500 to 1000 nM |  | N[C@@H](CCc1nc(C2(CN[C@@H]3C[C@H]3c3ccccc3)CC2)no1)C(=O)O [Example 153] | 90 to 100% |  |
| 50 to 100 nM | 100 to 500 nM |  | c1ccc([C@@H]2C[C@H]2NCC2(c3noc([C@H]4C[C@H]5CNC[C@H]5C4)n3)CC2)cc1 [Example 156] | 70 to 90% |  |
| 50 to 100 nM | 500 to 1000 nM |  | c1ccc([C@@H]2C[C@H]2NCC2(c3noc([C@@H]4C[C@H]5CNC[C@H]5C4)n3)CC2)cc1 [Example 157] | 70 to 90% |  |
| ≤ 50 nM | 500 to 1000 nM |  | c1ccc([C@@H]2C[C@H]2NCC2(c3noc(C4CCC5(CC4)CNC5)n3)CC2)cc1 [Example 158] | 90 to 100% |  |
| 50 to 100 nM | 100 to 500 nM |  | NC1CCN(c2nc(C3(CN[C@@H]4C[C@H]4c4ccccc4)CC3)no2)CC1 [Example 159] | 90 to 100% |  |
| ≤ 50 nM | 100 to 500 nM |  | c1ccc(C2C[C@@H]2NCC2(c3noc(C4CCc5nc[nH]c5C4)n3)CC2)cc1 (stereo partly drawn) [Example 161] | 70 to 90% |  |
| ≤ 50 nM | 500 to 1000 nM |  | c1ccc(C2C[C@@H]2NCC2(c3noc(-c4cn5c(n4)CCCC5)n3)CC2)cc1 (stereo partly drawn) [Example 162] | 90 to 100% |  |
| 100 to 500 nM | 100 to 500 nM |  | c1ccc(C2C[C@@H]2NCC2(c3noc(CC4CCNCC4)n3)CC2)cc1 (stereo partly drawn) [Example 163] | 70 to 90% |  |
| ≤ 50 nM | 100 to 500 nM |  | COC(=O)[C@H]1CC[C@H](c2nc(C3(CN[C@@H]4C[C@H]4c4ccccc4)CC3)no2)CC1 [Example 171] | 50 to 70% |  |
| 100 to 500 nM | 500 to 1000 nM |  | O=C(O)[C@H]1CC[C@@H](c2nc(C3(CN[C@H]4CC4c4ccccc4)CC3)no2)C1 (stereo partly drawn) [Example 174] | 50 to 70% |  |
| 100 to 500 nM | 500 to 1000 nM |  | O=C(O)[C@@H]1CC[C@H](c2nc(C3(CN[C@H]4CC4c4ccccc4)CC3)no2)C1 (stereo partly drawn) [Example 178] | 70 to 90% |  |
| ≤ 50 nM | 500 to 1000 nM |  | NC(=O)c1ccc(-c2nc(C3(CN[C@H]4CC4c4ccccc4)CC3)no2)cc1 (stereo partly drawn) [Example 182] | 90 to 100% |  |
| ≤ 50 nM | 500 to 1000 nM |  | CN(C)C(=O)c1ccc(-c2nc(C3(CN[C@H]4CC4c4ccccc4)CC3)no2)cc1 (stereo partly drawn) [Example 183] | 90 to 100% |  |
| ≤ 50 nM | 100 to 500 nM |  | O=C(NC1CC1)c1ccc(-c2nc(C3(CN[C@H]4CC4c4ccccc4)CC3)no2)cc1 (stereo partly drawn) [Example 184] | 90 to 100% |  |
| 100 to 500 nM |  |  | O=C(O)c1ccc(CN2CC(c3nc(C4(CN[C@H]5C[C@@H]5c5ccccc5)CC4)no3)C2)cc1 [Example 205] |  |  |
| 100 to 500 nM |  |  | O=C(O)c1ccc(CN2CCC(c3nc(C4(CN[C@H]5C[C@@H]5c5ccccc5)CC4)no3)C2)cc1 (stereo partly drawn) [Example 215] |  |  |
| 100 to 500 nM |  |  | CN1CCC(c2nc(C3(CN[C@H]4C[C@@H]4c4ccccc4)CC3)no2)CC1=O (stereo partly drawn) [Example 218] |  |  |
| 50 to 100 nM |  |  | c1ccc([C@@H]2C[C@H]2NCC2(c3noc(C4CCNCC4)n3)CC2)cc1 [Example 231] |  |  |
| ≤ 50 nM |  |  | NC[C@H]1CC[C@H](c2nc(C3(CN[C@@H]4C[C@H]4c4ccccc4)CC3)no2)CC1 [Example 239] |  |  |
| 50 to 100 nM |  |  | N[C@H]1CC[C@H](Cc2nc(C3(CN[C@@H]4C[C@H]4c4ccccc4)CC3)no2)CC1 [Example 240] |  |  |
| 100 to 500 nM |  |  | N[C@H]1CC[C@H](c2nnc(C3(CN[C@@H]4C[C@H]4c4ccccc4)CC3)o2)CC1 [Example 243] |  |  |
| ≤ 50 nM |  |  | CC1(N)CCC(c2nc(C3(CN[C@@H]4C[C@H]4c4ccccc4)CC3)no2)CC1 (stereo partly drawn) [Example 245] |  |  |
| 100 to 500 nM |  |  | O=C(O)C1CCN(c2nc(C3(CN[C@@H]4C[C@H]4c4ccccc4)CC3)no2)CC1 [Example 253] |  |  |
